Assays:
Assay in all cases: KINOMEscan competition binding
Conditions in all cases: compound 10.0 µM
KIT (human) = KIT (human) (UniProt P10721)
MAPKAPK2 (human) = MAPKAPK2 (human) (UniProt P49137)
MAP4K3 (human) = MAP4K3 (human) (UniProt Q8IVH8)
RPS6KA1 KD1 (human) = RPS6KA1 KD1 (human) (UniProt Q15418)
LTK (human) = LTK (human) (UniProt P29376)
PRKACA (human) = PRKACA (human) (UniProt P17612)
MKNK1 (human) = MKNK1 (human) (UniProt Q9BUB5)
MARK2 (human) = MARK2 (human) (UniProt Q7KZI7)
NUAK2 (human) = NUAK2 (human) (UniProt Q9H093)
EGFR (human) = EGFR (human) (UniProt P00533)
Chain of EGFR (human) (P00533 whole entry, looked up): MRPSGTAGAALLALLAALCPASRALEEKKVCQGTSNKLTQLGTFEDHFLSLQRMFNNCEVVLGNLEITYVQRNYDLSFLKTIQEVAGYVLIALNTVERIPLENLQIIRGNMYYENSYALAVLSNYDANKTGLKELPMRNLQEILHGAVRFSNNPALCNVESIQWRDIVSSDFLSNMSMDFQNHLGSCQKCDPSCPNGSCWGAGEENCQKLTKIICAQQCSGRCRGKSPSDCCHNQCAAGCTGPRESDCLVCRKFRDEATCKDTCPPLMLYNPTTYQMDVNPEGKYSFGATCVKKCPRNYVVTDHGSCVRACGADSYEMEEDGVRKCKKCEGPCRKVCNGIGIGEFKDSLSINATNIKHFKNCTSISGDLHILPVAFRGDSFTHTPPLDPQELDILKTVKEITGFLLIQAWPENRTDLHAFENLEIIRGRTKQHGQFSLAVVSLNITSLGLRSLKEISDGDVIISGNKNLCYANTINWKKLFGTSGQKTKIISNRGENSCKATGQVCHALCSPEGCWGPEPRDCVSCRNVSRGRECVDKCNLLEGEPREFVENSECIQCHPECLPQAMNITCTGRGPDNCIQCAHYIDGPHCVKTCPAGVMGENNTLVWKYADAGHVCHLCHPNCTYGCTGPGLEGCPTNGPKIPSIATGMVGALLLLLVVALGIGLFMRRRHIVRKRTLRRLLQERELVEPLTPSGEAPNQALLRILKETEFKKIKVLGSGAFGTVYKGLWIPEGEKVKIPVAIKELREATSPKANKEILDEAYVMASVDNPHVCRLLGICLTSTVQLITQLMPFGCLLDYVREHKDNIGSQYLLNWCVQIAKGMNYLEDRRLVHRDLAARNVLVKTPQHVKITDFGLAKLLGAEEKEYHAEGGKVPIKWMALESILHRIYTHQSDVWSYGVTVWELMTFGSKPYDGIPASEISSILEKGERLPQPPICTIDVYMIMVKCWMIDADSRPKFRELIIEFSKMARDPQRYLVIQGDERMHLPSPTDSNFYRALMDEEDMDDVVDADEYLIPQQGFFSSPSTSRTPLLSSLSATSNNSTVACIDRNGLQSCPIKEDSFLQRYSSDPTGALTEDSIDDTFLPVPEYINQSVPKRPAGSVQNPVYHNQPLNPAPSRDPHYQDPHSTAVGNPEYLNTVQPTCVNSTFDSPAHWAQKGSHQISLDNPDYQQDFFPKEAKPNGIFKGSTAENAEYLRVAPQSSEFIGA

[1] = target: TYK2 JH2 pseudokinase (human) (UniProt P29597)
NEK7 (human) = NEK7 (human) (UniProt Q8TDX7)
Chain of NEK7 (human) (Q8TDX7 whole entry, looked up): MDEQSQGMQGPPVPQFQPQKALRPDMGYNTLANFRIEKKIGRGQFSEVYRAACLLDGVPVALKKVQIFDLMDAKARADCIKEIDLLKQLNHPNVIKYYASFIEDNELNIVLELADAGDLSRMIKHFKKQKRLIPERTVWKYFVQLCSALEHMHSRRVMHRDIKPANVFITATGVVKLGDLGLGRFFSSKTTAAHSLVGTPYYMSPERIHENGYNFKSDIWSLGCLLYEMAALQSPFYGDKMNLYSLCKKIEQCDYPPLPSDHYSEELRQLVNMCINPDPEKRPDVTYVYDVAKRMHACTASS

CDK8 (human) = CDK8 (human) (UniProt P49336)
DDR1 (human) = DDR1 (human) (UniProt Q08345)
CDC42BPB (human) = CDC42BPB (human) (UniProt Q9Y5S2)
Chain of CDC42BPB (human) (Q9Y5S2 whole entry, looked up): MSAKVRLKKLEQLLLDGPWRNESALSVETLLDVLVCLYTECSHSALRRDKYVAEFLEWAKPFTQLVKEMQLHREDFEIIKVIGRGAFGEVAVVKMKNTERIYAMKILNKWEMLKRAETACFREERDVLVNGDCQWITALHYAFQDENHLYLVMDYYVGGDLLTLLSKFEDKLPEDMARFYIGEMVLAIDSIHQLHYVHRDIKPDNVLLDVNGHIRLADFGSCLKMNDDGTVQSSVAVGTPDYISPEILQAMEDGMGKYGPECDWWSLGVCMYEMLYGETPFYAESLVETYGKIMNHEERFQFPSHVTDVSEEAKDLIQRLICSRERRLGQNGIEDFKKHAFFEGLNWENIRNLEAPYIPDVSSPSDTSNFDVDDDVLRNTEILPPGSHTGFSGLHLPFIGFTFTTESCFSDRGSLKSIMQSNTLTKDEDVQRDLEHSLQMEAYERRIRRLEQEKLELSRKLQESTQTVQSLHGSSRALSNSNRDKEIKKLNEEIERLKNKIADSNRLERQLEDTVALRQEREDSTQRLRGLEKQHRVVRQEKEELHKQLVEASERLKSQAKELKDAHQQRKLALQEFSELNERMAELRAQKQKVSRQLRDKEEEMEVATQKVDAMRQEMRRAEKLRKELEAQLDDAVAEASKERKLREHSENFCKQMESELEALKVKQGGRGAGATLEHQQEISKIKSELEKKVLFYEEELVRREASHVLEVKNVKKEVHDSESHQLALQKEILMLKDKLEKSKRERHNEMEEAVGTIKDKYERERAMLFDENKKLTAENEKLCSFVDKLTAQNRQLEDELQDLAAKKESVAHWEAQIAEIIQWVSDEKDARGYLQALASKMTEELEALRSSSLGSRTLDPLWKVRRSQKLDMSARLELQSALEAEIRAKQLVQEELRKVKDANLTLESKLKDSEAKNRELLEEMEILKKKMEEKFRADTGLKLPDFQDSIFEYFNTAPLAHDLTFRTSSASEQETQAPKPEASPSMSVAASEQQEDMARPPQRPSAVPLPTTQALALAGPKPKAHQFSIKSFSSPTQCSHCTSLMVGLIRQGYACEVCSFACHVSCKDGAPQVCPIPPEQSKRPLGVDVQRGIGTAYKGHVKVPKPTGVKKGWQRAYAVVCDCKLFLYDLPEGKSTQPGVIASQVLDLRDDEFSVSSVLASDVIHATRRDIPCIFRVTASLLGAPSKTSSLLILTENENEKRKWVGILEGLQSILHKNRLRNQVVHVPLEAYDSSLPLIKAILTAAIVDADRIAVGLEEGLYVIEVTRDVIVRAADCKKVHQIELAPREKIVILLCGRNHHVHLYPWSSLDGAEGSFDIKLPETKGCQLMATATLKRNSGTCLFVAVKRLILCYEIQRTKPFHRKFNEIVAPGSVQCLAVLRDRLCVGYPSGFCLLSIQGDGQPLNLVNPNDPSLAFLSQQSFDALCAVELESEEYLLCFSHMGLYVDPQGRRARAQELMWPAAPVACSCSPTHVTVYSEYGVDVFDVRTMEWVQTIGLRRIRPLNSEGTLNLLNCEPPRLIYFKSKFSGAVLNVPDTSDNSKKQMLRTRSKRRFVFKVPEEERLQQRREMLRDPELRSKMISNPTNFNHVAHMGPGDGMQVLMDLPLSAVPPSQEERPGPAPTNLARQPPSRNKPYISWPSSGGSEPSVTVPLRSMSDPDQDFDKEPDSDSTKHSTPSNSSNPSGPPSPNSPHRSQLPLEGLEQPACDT

ULK3 (human) = ULK3 (human) (UniProt Q6PHR2)
RIOK3 (human) = RIOK3 (human) (UniProt O14730)
MAPK9 (human) = MAPK9 (human) (UniProt P45984)
DYRK2 (human) = DYRK2 (human) (UniProt Q92630)
RPS6KB1 (human) = RPS6KB1 (human) (UniProt P23443)
ACVRL1 (human) = ACVRL1 (human) (UniProt P37023)
Chain of ACVRL1 (human) (P37023 whole entry, looked up): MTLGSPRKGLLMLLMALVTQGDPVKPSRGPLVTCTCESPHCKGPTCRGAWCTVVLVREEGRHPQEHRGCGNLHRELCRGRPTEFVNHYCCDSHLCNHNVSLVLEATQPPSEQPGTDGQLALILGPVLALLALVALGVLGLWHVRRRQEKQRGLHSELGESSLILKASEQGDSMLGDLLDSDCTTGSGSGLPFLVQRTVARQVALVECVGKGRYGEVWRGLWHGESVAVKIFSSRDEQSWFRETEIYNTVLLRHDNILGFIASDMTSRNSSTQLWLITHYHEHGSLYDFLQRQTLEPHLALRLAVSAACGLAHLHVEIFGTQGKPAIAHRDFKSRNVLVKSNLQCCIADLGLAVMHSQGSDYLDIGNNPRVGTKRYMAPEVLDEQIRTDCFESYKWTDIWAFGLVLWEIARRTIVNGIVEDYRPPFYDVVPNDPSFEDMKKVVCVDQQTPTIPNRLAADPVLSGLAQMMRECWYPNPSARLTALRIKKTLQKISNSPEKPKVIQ

FYN (human) = FYN (human) (UniProt P06241)
ERN1 (human) = ERN1 (human) (UniProt O75460)
HIPK1 (human) = HIPK1 (human) (UniProt Q86Z02)
LYN (human) = LYN (human) (UniProt P07948)
NLK (human) = NLK (human) (UniProt Q9UBE8)
CASK (human) = CASK (human) (UniProt O14936)
BMPR1A (human) = BMPR1A (human) (UniProt P36894)
CDK7 (human) = CDK7 (human) (UniProt P50613)
EPHA6 (human) = EPHA6 (human) (UniProt Q9UF33)
BTK (human) = BTK (human) (UniProt Q06187)
BRSK2 (human) = BRSK2 (human) (UniProt Q8IWQ3)
GAK (human) = GAK (human) (UniProt O14976)
PIP4K2B (human) = PIP4K2B (human) (UniProt P78356)
FGFR3 (human) = FGFR3 (human) (UniProt P22607)
ITK (human) = ITK (human) (UniProt Q08881)
PRPF4B (human) = PRPF4B (human) (UniProt Q13523)
MET (human) = MET (human) (UniProt P08581)
Chain of MET (human) (P08581 whole entry, looked up): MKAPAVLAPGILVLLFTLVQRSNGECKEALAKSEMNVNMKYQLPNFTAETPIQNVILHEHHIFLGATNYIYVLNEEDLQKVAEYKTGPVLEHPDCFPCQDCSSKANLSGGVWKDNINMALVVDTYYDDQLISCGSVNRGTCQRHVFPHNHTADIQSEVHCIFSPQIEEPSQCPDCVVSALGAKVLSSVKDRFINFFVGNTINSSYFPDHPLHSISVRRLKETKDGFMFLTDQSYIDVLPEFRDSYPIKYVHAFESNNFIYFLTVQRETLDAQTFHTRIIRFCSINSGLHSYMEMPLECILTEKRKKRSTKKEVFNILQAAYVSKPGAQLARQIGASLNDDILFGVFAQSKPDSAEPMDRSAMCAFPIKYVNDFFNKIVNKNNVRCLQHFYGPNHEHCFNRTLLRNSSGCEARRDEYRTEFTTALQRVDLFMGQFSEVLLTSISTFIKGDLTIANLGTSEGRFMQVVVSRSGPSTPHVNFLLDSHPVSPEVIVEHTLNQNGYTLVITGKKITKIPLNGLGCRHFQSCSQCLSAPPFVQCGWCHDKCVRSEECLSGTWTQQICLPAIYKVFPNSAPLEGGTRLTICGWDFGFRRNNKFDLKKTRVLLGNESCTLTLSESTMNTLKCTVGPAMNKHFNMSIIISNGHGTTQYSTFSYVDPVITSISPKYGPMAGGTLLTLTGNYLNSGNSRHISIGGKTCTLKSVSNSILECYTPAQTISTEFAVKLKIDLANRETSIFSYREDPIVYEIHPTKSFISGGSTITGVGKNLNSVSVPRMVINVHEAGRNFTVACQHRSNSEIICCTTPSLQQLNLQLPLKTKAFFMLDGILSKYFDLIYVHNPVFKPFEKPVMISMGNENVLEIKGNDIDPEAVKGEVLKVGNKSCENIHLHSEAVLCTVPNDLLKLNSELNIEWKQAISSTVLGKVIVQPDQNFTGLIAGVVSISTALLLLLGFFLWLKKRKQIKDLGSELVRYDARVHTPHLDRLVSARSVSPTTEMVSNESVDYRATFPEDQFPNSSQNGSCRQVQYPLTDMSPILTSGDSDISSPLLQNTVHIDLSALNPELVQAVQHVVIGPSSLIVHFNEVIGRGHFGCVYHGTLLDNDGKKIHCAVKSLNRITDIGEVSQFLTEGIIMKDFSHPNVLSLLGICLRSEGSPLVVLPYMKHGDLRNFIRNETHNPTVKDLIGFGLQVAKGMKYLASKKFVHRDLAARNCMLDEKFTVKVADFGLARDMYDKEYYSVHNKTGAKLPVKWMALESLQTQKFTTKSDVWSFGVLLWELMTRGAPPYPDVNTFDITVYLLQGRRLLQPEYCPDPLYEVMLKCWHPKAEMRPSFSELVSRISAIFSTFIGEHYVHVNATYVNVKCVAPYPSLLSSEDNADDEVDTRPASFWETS

PIM1 (human) = PIM1 (human) (UniProt P11309)
CDK3 (human) = CDK3 (human) (UniProt Q00526)

N#Cc1cc(-c2ccnc(Nc3ccc(-n4cnc(-c5cccnc5)n4)cc3)n2)cc(N2CCOCC2)c1
kinase still bound, per cent of control (KIT (human)): 0.65% | kinase still bound, per cent of control (MAPKAPK2 (human)): 100% | kinase still bound, per cent of control (MAP4K3 (human)): 6.3% | kinase still bound, per cent of control (RPS6KA1 KD1 (human)): 31% | kinase still bound, per cent of control (LTK (human)): 77% | kinase still bound, per cent of control (PRKACA (human)): 89% | kinase still bound, per cent of control (MKNK1 (human)): 100% | kinase still bound, per cent of control (MARK2 (human)): 73% | kinase still bound, per cent of control (NUAK2 (human)): 57% | kinase still bound, per cent of control (EGFR (human)): 71% | kinase still bound, per cent of control [1]: 12% | kinase still bound, per cent of control (NEK7 (human)): 45% | kinase still bound, per cent of control (CDK8 (human)): 80% | kinase still bound, per cent of control (DDR1 (human)): 100% | kinase still bound, per cent of control (CDC42BPB (human)): 61% | kinase still bound, per cent of control (ULK3 (human)): 6% | kinase still bound, per cent of control (RIOK3 (human)): 3.2% | kinase still bound, per cent of control (MAPK9 (human)): 0.1% | kinase still bound, per cent of control (DYRK2 (human)): 39% | kinase still bound, per cent of control (RPS6KB1 (human)): 52% | kinase still bound, per cent of control (ACVRL1 (human)): 100% | kinase still bound, per cent of control (FYN (human)): 83% | kinase still bound, per cent of control (ERN1 (human)): 54% | kinase still bound, per cent of control (HIPK1 (human)): 2.2% | kinase still bound, per cent of control (LYN (human)): 78% | kinase still bound, per cent of control (NLK (human)): 76% | kinase still bound, per cent of control (CASK (human)): 78% | kinase still bound, per cent of control (BMPR1A (human)): 28% | kinase still bound, per cent of control (CDK7 (human)): 1.2% | kinase still bound, per cent of control (EPHA6 (human)): 72% | kinase still bound, per cent of control (BTK (human)): 74% | kinase still bound, per cent of control (BRSK2 (human)): 98% | kinase still bound, per cent of control (GAK (human)): 22% | kinase still bound, per cent of control (PIP4K2B (human)): 6.9% | kinase still bound, per cent of control (FGFR3 (human)): 74% | kinase still bound, per cent of control (ITK (human)): 100% | kinase still bound, per cent of control (PRPF4B (human)): 57% | kinase still bound, per cent of control (MET (human)): 24% | kinase still bound, per cent of control (PIM1 (human)): 78% | kinase still bound, per cent of control (CDK3 (human)): 45%

CCN1CCN(Cc2ccc(NC(=O)c3ccc(C)c(/C=C/c4cnc5[nH]ccc5c4OC)c3)cc2C(F)(F)F)CC1
kinase still bound, per cent of control (KIT (human)): 0% | kinase still bound, per cent of control (MAPKAPK2 (human)): 100% | kinase still bound, per cent of control (MAP4K3 (human)): 14% | kinase still bound, per cent of control (RPS6KA1 KD1 (human)): 31% | kinase still bound, per cent of control (LTK (human)): 62% | kinase still bound, per cent of control (PRKACA (human)): 100% | kinase still bound, per cent of control (MKNK1 (human)): 68% | kinase still bound, per cent of control (MARK2 (human)): 68% | kinase still bound, per cent of control (NUAK2 (human)): 95% | kinase still bound, per cent of control (EGFR (human)): 0.4% | kinase still bound, per cent of control [1]: 100% | kinase still bound, per cent of control (NEK7 (human)): 64% | kinase still bound, per cent of control (CDK8 (human)): 21% | kinase still bound, per cent of control (DDR1 (human)): 0.15% | kinase still bound, per cent of control (CDC42BPB (human)): 65% | kinase still bound, per cent of control (ULK3 (human)): 1.5% | kinase still bound, per cent of control (RIOK3 (human)): 0.35% | kinase still bound, per cent of control (MAPK9 (human)): 0.1% | kinase still bound, per cent of control (DYRK2 (human)): 78% | kinase still bound, per cent of control (RPS6KB1 (human)): 9% | kinase still bound, per cent of control (ACVRL1 (human)): 100% | kinase still bound, per cent of control (FYN (human)): 1.2% | kinase still bound, per cent of control (ERN1 (human)): 72% | kinase still bound, per cent of control (HIPK1 (human)): 74% | kinase still bound, per cent of control (LYN (human)): 0% | kinase still bound, per cent of control (NLK (human)): 17% | kinase still bound, per cent of control (CASK (human)): 77% | kinase still bound, per cent of control (BMPR1A (human)): 76% | kinase still bound, per cent of control (CDK7 (human)): 41% | kinase still bound, per cent of control (EPHA6 (human)): 0% | kinase still bound, per cent of control (BTK (human)): 0.3% | kinase still bound, per cent of control (BRSK2 (human)): 100% | kinase still bound, per cent of control (GAK (human)): 2.2% | kinase still bound, per cent of control (PIP4K2B (human)): 0.4% | kinase still bound, per cent of control (FGFR3 (human)): 1.8% | kinase still bound, per cent of control (ITK (human)): 18% | kinase still bound, per cent of control (PRPF4B (human)): 12% | kinase still bound, per cent of control (MET (human)): 40% | kinase still bound, per cent of control (PIM1 (human)): 100% | kinase still bound, per cent of control (CDK3 (human)): 100%

Reference: the kinase profiling compilation of Christmann-Franck et al. (2016)
